T1: BP0403 (Bordetella pertussis, UniProt Q7VSK8, Q263A)
T1 sequence (Q7VSK8 208-503 Q263A): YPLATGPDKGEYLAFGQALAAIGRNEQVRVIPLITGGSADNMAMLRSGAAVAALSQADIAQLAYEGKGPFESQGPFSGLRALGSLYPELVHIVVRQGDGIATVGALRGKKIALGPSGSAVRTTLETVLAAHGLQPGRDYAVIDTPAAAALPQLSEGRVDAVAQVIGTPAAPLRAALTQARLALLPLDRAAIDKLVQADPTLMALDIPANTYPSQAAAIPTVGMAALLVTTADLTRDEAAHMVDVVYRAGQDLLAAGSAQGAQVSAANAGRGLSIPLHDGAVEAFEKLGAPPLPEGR

T2: BP0403 (Bordetella pertussis, UniProt Q7VSK8, Y219A)
T2 sequence (Q7VSK8 208-503 Y219A): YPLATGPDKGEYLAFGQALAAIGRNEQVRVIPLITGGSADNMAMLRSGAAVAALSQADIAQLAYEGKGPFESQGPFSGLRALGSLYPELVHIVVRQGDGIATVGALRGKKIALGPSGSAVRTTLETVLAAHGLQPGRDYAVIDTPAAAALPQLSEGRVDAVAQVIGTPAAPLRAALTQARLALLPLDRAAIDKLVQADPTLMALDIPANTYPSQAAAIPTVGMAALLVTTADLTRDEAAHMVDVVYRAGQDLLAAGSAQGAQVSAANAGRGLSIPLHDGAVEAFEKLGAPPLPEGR


Legend:
BP0403 [1] = molecular target: T1, BP0403; test: intrinsic tyrosine fluorescence titration; assay type: binding
BP0403 [2] = molecular target: T3, BP0403 (Bordetella pertussis, UniProt Q7VSK8); test: intrinsic tyrosine fluorescence titration (n = […]); DSF shift on full-length protein and SBP domain; assay type: binding
T3 construct: BP0403SBP (residues 208–503), isolated C-terminal SBP domain; full-length BP0403FL (without signal peptide) also shifted in DSF

BP0403 [3] = molecular target: T2, BP0403; test: intrinsic tyrosine fluorescence titration; assay type: binding
[4] = molecular target: the molecule itself; test: SEC; Superdex 200 Increase 10/300 GL, 0.5 ml/min, SEC buffer (50 mM Tris-HCl pH 8, 100 mM NaCl, 5% glycerol); IMAC eluate incubated 20 min at room temperature with 5 mM EDTA and 100 mM glycerol before loading; elution volume compared with a calibration curve of molecular weight standards

Row | Molecule | Kd (BP0403 [1]) | Kd (BP0403 [2]) | Kd (BP0403 [3]) | stoichiometry N [4]
1 | N[C@@H](CCC(=O)O)C(=O)O [L-glutamate] | 45 ± 3 µM | 0.18 ± 0.032 µM | 31 ± 6 µM | 
2 | full-length BP0403 (BP0403FL) (natural protein, Bordetella pertussis, UniProt Q7VSK8 20-503, looked up, Codon optimised synthetic gene; also called BP0403 wildtype; source: E. coli BL21 (DE3), pET151, purified (Ni-NTA, SEC)) SRAPDTEILQRDVGQTLAATYGPDLFDIVALRRMGSATDSTAPPGQTRRVVYYDVVLGLKKDLTLGAWDQPGAAALVSLLGAGPRSISGVKSSGNAAGDQIVAHASAIYQRDAEQWVHVAPASFTATEAPSLDTGAPPPVTRQLLQTLEQITRSVPYSASSTAQHVVQQELERSVARINGRLARLQKGYPLATGPDKGEYLAFGQALAAIGRNEQVRVIPLITGGSADNMAMLRSGAAVAALSQADIAQLAYEGKGPFESQGPFSGLRALGSLYPELVHIVVRQGDGIATVGALRGKKIALGPSGSAVRTTLETVLAAHGLQPGRDYAVIDTPAAAALPQLSEGRVDAVAQVIGTPAAPLRAALTQARLALLPLDRAAIDKLVQADPTLMALDIPANTYPSQAAAIPTVGMAALLVTTADLTRDEAAHMVDVVYRAGQDLLAAGSAQGAQVSAANAGRGLSIPLHDGAVEAFEKLGAPPLPEGR |  |  |  | 2

Reference: PMC12344293, “A new class of binding-protein dependent solute transporter exemplified by the TAXI-GltS system from Bordetella pertussis” (Communications Biology, 2025)
